Measurements: US9937250B2, “Immunogenic tumor associated stromal cell antigen peptides and methods of their use” (University of Pittsburgh—Of the Commonwealth System of …, priority 2011, dated 2018)

Experiments:
[1] = system: MC38 colon carcinoma; assay: MC38 protection (prophylactic vaccination) model; type: in vivo, HHD mice; settings: immunization days -14 and -7, tumor challenge day 0 (FIG. 9B)
Excerpt: (§1) FIGS. 9A-9B show a series of graphs illustrating induction of specific/protective CD8^+ T cells reactive against TASA as a consequence of DC/peptide-based vaccination. In FIG. 9A, HHD mice (five animals/cohort) were vaccinated twice (d-14, d-7) subcutaneously with PBS or with isologous DC.IL12 pulsed with PBS or synthetic peptides (Table 6) derived from the indicated TASA. In cases where more than 1 peptide was identified for a given target antigen, an equimolar pool of the indicated peptides (each 10 μM) was pulsed onto DC.IL12 and used for vaccination in the relevant cohort. One week after the second immunization, spleens were harvested and splenic CD8^+ T cells isolated using MACS-beads (Miltenyi). T cells were stimulated in vitro for 48 h using the HLA-A2^+ T2 cell line pulsed with relevant TASA vs. irrelevant HIV-nef190-198 ([…]; ref. 24) peptides. Cell-free supernatants were then recovered and IFN-γ levels by ELISA. Data are reported as mean+/−SD for triplicate ELISA determinations, and are representative of 3 independent experiments performed. *p<0.05 vs. HIV-nef control peptide responses. In FIG. 9B, HHD mice were vaccinated twice (days −14 and −7; right flank) subcutaneously with PBS or with isologous DC.IL12 pulsed with PBS or synthetic TASA peptides as indicated in FIG. 1A. In cases where more than 1 peptide is identified for a given target antigen, an equimolar pool of the indicated peptides (each 10 μM) was pulsed onto DC.IL12 and used for vaccination in the relevant cohort. One week after the booster vaccine (i.e. day zero), animals were challenged subcutaneously on their left flank with 2×10^6 MC38 colon carcinoma cells. Tumor growth was then monitored every 3-4 days through day 24. All data represent mean tumor area (in mm^2)+/−SD determined from 5 mice/cohort, and are representative of three independent experiments performed. *p<0.05 versus DC only on the indicated days.
(§2) Vaccine Experiments. For prophylactic experiments, HHD mice were immunized subcutaneously on the right flank with 100 μl PBS or PBS containing 10^6 syngenic DC.IL12 cells that had been untreated or pre-pulsed for 4 h at 37° C. with 10 μM synthetic peptide(s). Immunizations occurred on days −14 and −7, with mice subsequently receiving injections of MC38 (2×10^6) tumor cells in the left flank on d0. In all cases, treatment groups contained 5 mice per cohort. For analysis of tumor cellular composition in repeat experiments, MC38 tumors were isolated by surgical resection 10 days after tumor inoculation and prepared for fluorescence imaging, as described below. […] Mice were then untreated or treated with control, syngenic DC.IL12 or DC.IL12 (10^6 cells injected subcutaneously in the left flank on days 7 and 14) pulsed with synthetic TBVA peptides. In some assays, as indicated, in vivo antibody depletions (on days 6, 13 and 20 post-tumor inoculation to assess early involvement or on days 60 and 67 or 180 and 187 to assess late involvement) of protective CD4^+ T cells or CD8^+ T cells were performed and monitored as previously described (Zhao et al., Mol Ther., 19:805-814, 2011). In all cases, tumor size (area) was monitored every 3-4 days and is reported as mean+/−SD in mm^2.
The DLK1, EphA2, HBB, NG2, NRP1, NRP2, PDGFRβ, PSMA, RGS5, TEM1, VEGFR1 and VEGFR2 antigens were expressed in situ by blood vessel cells in the MC38 colon carcinoma TME (FIG. 14). Protection of HHD mice against a challenge with HLA-A2^neg MC38 tumor cells injected subcutaneously on day zero was assayed with immunization with TBVA-derived peptides on days −14 and −7. […]

[2] = system: CD8+ splenocytes; assay: Tc1 response to DC.IL12/peptide vaccination (splenic CD8+ T cell IFN-γ ELISA against peptide-pulsed T2 cells); type: in vivo, HHD mice; settings: DC.IL12 pulsed with peptide(s), two s.c. vaccinations; versus DC only
Excerpt: as §1, §2
Evaluation of Specific CD8^+ T Cell Responses in HHD Mice. MACS (Miltenyi Biotec) CD8^+ splenocytes were harvested (from 3 mice/group) 7 days after the second round of DC-based vaccination (i.e. day 21 after tumor inoculation) and analyzed for reactivity against unpulsed T2 cells, TBVA peptide-pulsed T2 cells, or day 19 (flow-sorted) B16-derived PDGFRβ^+CD31^negH-2K^b(neg) pericytes or PDGFRβ^negCD31^+H-2K^b(neg) VEC isolated as previously described (Zhao et al., Mol Ther., 19:805-814, 2011). Where indicated, 10 μg of anti-HLA-A2 mAb BB7.2 or control anti-class II mAb L243 (both from ATCC, Manassas, Va.) were added to replicate co-culture wells. After 48 h, supernatants were analyzed for mIFN-γ content by specific ELISA (BD-Biosciences; lower detection limit=31.3 pg/ml). […]

| Substance | Protection against HLA-A2neg MC38 tumor challenge [1] | Tc1 Response to Peptide Vaccine (HHD) [2] |
| --- | --- | --- |
| RGS5: RGS5-derived peptide 5-13 pulsed onto DC or DC.IL12 (LAALPHSCL; listed as Homo sapiens) | effective in preventing HLA-A2^neg MC38 tumor establishment or they resulted in the regression of tumors | – |
| EphA2: EphA2-derived peptide 883-891 pulsed onto DC or DC.IL12 (TLADFDPRV; listed as Homo sapiens) | effective in preventing HLA-A2^neg MC38 tumor establishment or they resulted in the regression of tumors | – |
| TEM1: TEM1-derived peptide 691-700 pulsed onto DC or DC.IL12 (LLVPTCVFLV; listed as Homo sapiens) | effective in preventing HLA-A2^neg MC38 tumor establishment or they resulted in the regression of tumors | – |
| LAALPHSCL (listed as Homo sapiens) | – | + (+, p < 0.05 versus DC only) |
